Measurements published in ChEMBL document CHEMBL3580632, “Lumiquinone A, an α-Aminomalonate-Derived Aminobenzoquinone from Photorhabdus luminescens” (2015).
Activity calls are given as the source filed them. The calls are words filed in the database; no cut-off is given here.

Assays:
[1] = system: Escherichia coli; assay: Antimicrobial activity against Escherichia coli Nissle1917 assessed as inhibition of microbial growth incubated at 30 degC for 24 hrs by paper disk method; assay type: functional, organism-based
[2] = system: Bacillus subtilis; assay: Antimicrobial activity against Bacillus subtilis NCIB3610 assessed as inhibition of microbial growth at 50 ug/disk incubated at 30 degC for 24 hrs by paper disk method; assay type: functional; details: NCIB3610, 24 h, read-out: IZ
[3] = system: Saccharomyces cerevisiae; assay: Antimicrobial activity against Saccharomyces cerevisiae assessed as inhibition of microbial growth at 50 ug/disk incubated at 30 degC for 24 hrs by paper disk method; assay type: functional

SMILES	growth inhibition (GI) [1]	zone of inhibition at 50 µg/disc [2] [mm]	growth inhibition (GI) [3]
CC(C)C1=C(O)C(=O)C(/C=C/c2ccccc2)=C(N)C1=O	inactive	4	–
CC(C)c1c(O)cc(/C=C/c2ccccc2)cc1O	inactive	–	Active
